# Experimental data: patent publication US9695155B2, “Herbicidal substituted pyrimidinyloxy benzene compounds” (E. I. DU PONT DE NEMOURS AND COMPANY, priority 2013, dated 2017)
# Experiments:
# large (Lg) crabgrass [1] = assay: Test C preemergence; type: in vivo, Digitaria sanguinalis; details: for Crabgrass, Large plant response rating: preemergence; for Plant response rating, Crabgrass, Large: Preemergence, 31 g ai/ha, scale 0 to 100, 0 no effect, 100 complete control
# Outline: (§1)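 Seeds were sown in loam–sand blend and sprayed preemergence, while plants at 1- to 4-leaf stage (2–18 cm) in peat-based medium received postemergence sprays; test chemicals were formulated in a non-phytotoxic solvent with surfactant. After 13–15 days in a greenhouse, injury was rated visually against controls, 0 (no effect) to 100 (complete control).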
# barnyardgrass [2] = assay: Test A preemergence; type: in vivo, Echinochloa crus-galli
# Outline: (§2)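 Visual injury scored 0–100 (100 = complete control) against untreated controls about 10 days after treatment in a greenhouse. Test chemicals, formulated with surfactant in non-phytotoxic solvent, were sprayed on soil preemergence or on 2-10 cm, one- to two-leaf plants postemergence.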
# velvetleaf [3] = assay: Test C postemergence; type: in vivo, Abutilon theophrasti
# Outline: as §1
# large (Lg) crabgrass [4] = assay: Test C postemergence; type: in vivo, Digitaria sanguinalis
# Outline: as §1
# johnsongrass = assay: Test C preemergence; type: in vivo, Sorghum halepense; details: preemergence
# Outline: as §1
# lambsquarters = assay: Test C postemergence; type: in vivo, Chenopodium album
# Outline: as §1
# sedge, umbrella = assay: Test B flooded paddy test; type: in vivo, Cyperus difformis; details: Flood, 250 g ai/ha; 0 to 100 scale where 0 is no effect and 100 is complete control
# Outline: (§3)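 Plants at 2-leaf stage; pots flooded to 3 cm above soil and compound applied directly into paddy water, depth held throughout. After 13 to 15 days in greenhouse, visual rating versus controls on 0 (no effect) to 100 (complete control) scale.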
# soybean = assay: Test C postemergence; type: in vivo, Glycine max
# Outline: as §1
# velvetleaf [5] = assay: Test C preemergence; type: in vivo, Abutilon theophrasti; details: preemergence
# Outline: as §1
# waterhemp = assay: Test C postemergence; type: in vivo, Amaranthus rudis
# Outline: as §1
# oilseed rape = assay: Test C postemergence; type: in vivo, Brassica napus
# Outline: as §1
# rice = assay: Test B flooded paddy test; type: in vivo, Oryza sativa; details: Flood, 250 g ai/ha; 0 to 100 scale where 0 is no effect and 100 is complete control
# Outline: as §3
# barnyardgrass [6] = assay: Test A postemergence; type: in vivo, Echinochloa crus-galli
# Outline: as §2
# corn = assay: Test A postemergence; type: in vivo, Zea mays
# Outline: as §2
# galium = assay: Test C preemergence; type: in vivo, Galium aparine; details: for Galium plant response rating: preemergence; for Plant response rating, Galium: Preemergence, 31 g ai/ha, scale 0 to 100, 0 no effect, 100 complete control
# Outline: as §1
# [7] = 16 g ai/ha, scale 0 to 100 (0 no effect, 100 complete control)
# [8] = 62 g ai/ha, scale 0 (no effect) to 100 (complete control)
# [9] = 125 g ai/ha, scale 0 (no effect) to 100 (complete control)
# [10] = 16 g ai/ha, postemergence, 0 is no effect, 100 is complete control
# [11] = 31 g ai/ha, postemergence, visual rating, scale 0 to 100 (0 no effect, 100 complete control), 13 to 15 days
# [12] = 125 g ai/ha, postemergence, visual rating, scale 0 to 100 (0 no effect, 100 complete control)
# [13] = Postemergence, 62 g ai/ha, scale 0 to 100 (0 no effect, 100 complete control)
# [14] = 1000 g ai/ha, 0 to 100 scale, 0 no effect, 100 complete control
# [15] = 125 g ai/ha, 0 to 100 scale where 0 is no effect and 100 is complete control
# [16] = 500 g ai/ha, 0 to 100 scale where 0 is no effect and 100 is complete control
# [17] = Postemergence, 31 g ai/ha, scale 0 to 100 (0 no effect, 100 complete control), 13 to 15 days
# [18] = 500 g ai/ha, 0 to 100 scale, 0 no effect, 100 complete control
# [19] = 8 g ai/ha, postemergence, 0 is no effect, 100 is complete control
compound,measurement,setting,value
FCc1cn(-c2c(F)cccc2Oc2ncc(Cl)cn2)nn1 [Compound 154],"Crabgrass, Large plant response rating",large (Lg) crabgrass [1]; [7],75
same,"Crabgrass, Large plant response rating",large (Lg) crabgrass [1]; [8],100
same,"Crabgrass, Large plant response rating",large (Lg) crabgrass [1]; [9],100
same,"Plant response rating, Crabgrass, Large",large (Lg) crabgrass [1],90
same,Barnyardgrass plant response rating,"barnyardgrass [2]; 1000 g ai/ha, 0 to 100 scale, 0 no effect, 100 complete control, approx. 10 days",100
same,"Plant response rating (0 to 100), Velvetleaf",velvetleaf [3]; [10],25
same,Velvetleaf plant response rating,velvetleaf [3]; [11],45
same,"Plant response rating, Velvetleaf",velvetleaf [3]; [12],80
same,"Plant response rating, Velvetleaf",velvetleaf [3]; [13],70
same,"Plant response rating (0 to 100), Crabgrass, Large",large (Lg) crabgrass [4]; [10],5
same,"Crabgrass, Large plant response rating",large (Lg) crabgrass [4]; [11],10
same,"Plant response rating, Crabgrass, Large",large (Lg) crabgrass [4]; [12],10
same,"Plant response rating, Crabgrass, Large",large (Lg) crabgrass [4]; [13],10
same,Johnsongrass plant response rating,johnsongrass; [7],0
same,Johnsongrass plant response rating,johnsongrass; [8],40
same,Johnsongrass plant response rating,johnsongrass; [9],85
same,"Plant response rating (0 to 100), Lambsquarters",lambsquarters; [10],20
same,Lambsquarters plant response rating,lambsquarters; [11],55
same,"Plant response rating, Lambsquarters",lambsquarters; [12],70
same,"Plant response rating, Lambsquarters",lambsquarters; [13],60
same,"Plant response rating, Sedge, Umbrella","sedge, umbrella",30
same,"Plant response rating (0 to 100), Soybean",soybean; [10],40
same,Soybean plant response rating,soybean; [11],65
same,"Plant response rating, Soybean",soybean; [12],75
same,"Plant response rating, Soybean",soybean; [13],65
same,Velvetleaf plant response rating,velvetleaf [5]; [7],85
same,Velvetleaf plant response rating,velvetleaf [5]; [8],100
same,Velvetleaf plant response rating,velvetleaf [5]; [9],100
same,"Plant response rating (0 to 100), Waterhemp",waterhemp; [10],5
same,Waterhemp plant response rating,waterhemp; [11],60
same,"Plant response rating, Waterhemp",waterhemp; [12],70
same,"Plant response rating, Waterhemp",waterhemp; [13],65
same,"Plant response rating (0 to 100), Oilseed Rape",oilseed rape; [10],40
same,Oilseed Rape plant response rating,oilseed rape; [11],50
same,"Plant response rating, Oilseed Rape",oilseed rape; [12],80
same,"Plant response rating, Oilseed Rape",oilseed rape; [13],50
same,"Plant response rating, Rice",rice,10
same,"Plant response rating, Barnyardgrass",barnyardgrass [6]; [14],100
same,"Plant response rating, Corn",corn; [14],90
same,Galium plant response rating,galium; [7],80
same,Galium plant response rating,galium; [8],95
same,Galium plant response rating,galium; [9],95
same,"Plant response rating, Galium",galium,95
Cc1cnc(Oc2cccc(C#N)c2-n2cc(I)cn2)nc1 [Compound 136],"Crabgrass, Large plant response rating",large (Lg) crabgrass [1]; [7],35
same,"Crabgrass, Large plant response rating",large (Lg) crabgrass [1]; [8],100
same,"Crabgrass, Large plant response rating",large (Lg) crabgrass [1]; [9],100
same,"Plant response rating, Crabgrass, Large",large (Lg) crabgrass [1],100
same,"Plant response rating, Barnyardgrass",barnyardgrass [2]; [15],60
same,Barnyardgrass plant response rating,barnyardgrass [2]; [16],100
same,"Plant response rating (0 to 100), Velvetleaf",velvetleaf [3]; [10],10
same,"Plant response rating, Velvetleaf",velvetleaf [3]; [12],25
same,"Plant response rating, Velvetleaf",velvetleaf [3]; [13],10
same,"Plant response rating (0 to 100), Crabgrass, Large",large (Lg) crabgrass [4]; [10],5
same,"Plant response rating, Crabgrass, Large",large (Lg) crabgrass [4]; [12],15
same,"Plant response rating, Crabgrass, Large",large (Lg) crabgrass [4]; [13],5
same,Johnsongrass plant response rating,johnsongrass; [7],0
same,Johnsongrass plant response rating,johnsongrass; [8],20
same,Johnsongrass plant response rating,johnsongrass; [9],60
same,"Plant response rating (0 to 100), Lambsquarters",lambsquarters; [10],20
same,"Plant response rating, Lambsquarters",lambsquarters; [12],75
same,"Plant response rating, Lambsquarters",lambsquarters; [13],60
same,"Plant response rating, Sedge, Umbrella","sedge, umbrella",70
same,"Plant response rating (0 to 100), Soybean",soybean; [10],35
same,"Plant response rating, Soybean",soybean; [12],90
same,"Plant response rating, Soybean",soybean; [13],75
same,Velvetleaf plant response rating,velvetleaf [5]; [7],5
same,Velvetleaf plant response rating,velvetleaf [5]; [8],30
same,Velvetleaf plant response rating,velvetleaf [5]; [9],90
same,"Plant response rating (0 to 100), Waterhemp",waterhemp; [10],40
same,"Plant response rating, Waterhemp",waterhemp; [12],30
same,"Plant response rating, Waterhemp",waterhemp; [13],35
same,"Plant response rating (0 to 100), Oilseed Rape",oilseed rape; [10],0
same,"Plant response rating, Oilseed Rape",oilseed rape; [12],5
same,"Plant response rating, Oilseed Rape",oilseed rape; [13],5
same,"Plant response rating, Rice",rice,15
same,Barnyardgrass plant response rating,barnyardgrass [6]; [15],30
same,"Plant response rating, Barnyardgrass",barnyardgrass [6]; [16],90
same,Corn plant response rating,corn; [15],10
same,"Plant response rating, Corn",corn; [16],60
same,Galium plant response rating,galium; [7],0
same,Galium plant response rating,galium; [8],30
same,Galium plant response rating,galium; [9],85
same,"Plant response rating, Galium",galium,0
N#Cc1cccc(Oc2ncc(F)cn2)c1-n1cc(Br)cn1 [Compound 62],"Plant response rating, Barnyardgrass",barnyardgrass [2]; [15],60
same,Barnyardgrass plant response rating,"barnyardgrass [2]; 500 g ai/ha, 0 to 100 scale, 0 no effect, 100 complete control, approx. 10 days",100
same,"Plant response rating (0 to 100), Velvetleaf","velvetleaf [3]; 125 g ai/ha, postemergence",75
same,"Plant response rating (0 to 100), Velvetleaf","velvetleaf [3]; 250 g ai/ha, postemergence",85
same,"Plant response rating, Velvetleaf",velvetleaf [3]; [17],20
same,"Plant response rating, Velvetleaf",velvetleaf [3]; [13],20
same,"Plant response rating (0 to 100), Crabgrass, Large","large (Lg) crabgrass [4]; 125 g ai/ha, postemergence",10
same,"Plant response rating (0 to 100), Crabgrass, Large","large (Lg) crabgrass [4]; 250 g ai/ha, postemergence",35
same,"Plant response rating, Crabgrass, Large",large (Lg) crabgrass [4]; [17],5
same,"Plant response rating, Crabgrass, Large",large (Lg) crabgrass [4]; [13],5
same,"Plant response rating (0 to 100), Lambsquarters","lambsquarters; 125 g ai/ha, postemergence",85
same,"Plant response rating (0 to 100), Lambsquarters","lambsquarters; 250 g ai/ha, postemergence",90
same,"Plant response rating, Lambsquarters",lambsquarters; [17],60
same,"Plant response rating, Lambsquarters",lambsquarters; [13],60
same,"Plant response rating, Sedge, Umbrella","sedge, umbrella",80
same,"Plant response rating (0 to 100), Soybean","soybean; 125 g ai/ha, postemergence",95
same,"Plant response rating (0 to 100), Soybean","soybean; 250 g ai/ha, postemergence",95
same,"Plant response rating, Soybean",soybean; [17],45
same,"Plant response rating, Soybean",soybean; [13],85
same,"Plant response rating (0 to 100), Waterhemp","waterhemp; 125 g ai/ha, postemergence",75
same,"Plant response rating (0 to 100), Waterhemp","waterhemp; 250 g ai/ha, postemergence",75
same,"Plant response rating, Waterhemp",waterhemp; [17],40
same,"Plant response rating, Waterhemp",waterhemp; [13],60
same,"Plant response rating (0 to 100), Oilseed Rape","oilseed rape; 125 g ai/ha, postemergence",60
same,"Plant response rating (0 to 100), Oilseed Rape","oilseed rape; 250 g ai/ha, postemergence",75
same,"Plant response rating, Oilseed Rape",oilseed rape; [17],20
same,"Plant response rating, Oilseed Rape",oilseed rape; [13],20
same,"Plant response rating, Rice",rice,0
same,"Plant response rating, Barnyardgrass",barnyardgrass [6]; [15],90
same,"Plant response rating, Barnyardgrass",barnyardgrass [6]; [18],100
same,"Plant response rating, Corn",corn; [15],70
same,"Plant response rating, Corn",corn; [18],90
CC(=NO)c1cn(-c2c(Br)cccc2Oc2ncc(Cl)cn2)nn1 [Compound 115],"Plant response rating, Barnyardgrass",barnyardgrass [2]; [14],100
same,"Plant response rating (0 to 100), Velvetleaf",velvetleaf [3]; [19],5
same,"Plant response rating (0 to 100), Velvetleaf",velvetleaf [3]; [10],5
same,"Plant response rating (0 to 100), Crabgrass, Large",large (Lg) crabgrass [4]; [19],5
same,"Plant response rating (0 to 100), Crabgrass, Large",large (Lg) crabgrass [4]; [10],5
same,"Plant response rating (0 to 100), Lambsquarters",lambsquarters; [19],10
same,"Plant response rating (0 to 100), Lambsquarters",lambsquarters; [10],10
same,"Plant response rating, Sedge, Umbrella","sedge, umbrella",20
same,"Plant response rating (0 to 100), Soybean",soybean; [19],5
same,"Plant response rating (0 to 100), Soybean",soybean; [10],10
same,"Plant response rating (0 to 100), Waterhemp",waterhemp; [19],5
same,"Plant response rating (0 to 100), Waterhemp",waterhemp; [10],30
same,"Plant response rating (0 to 100), Oilseed Rape",oilseed rape; [19],0
same,"Plant response rating (0 to 100), Oilseed Rape",oilseed rape; [10],0
same,"Plant response rating, Rice",rice,0
same,"Plant response rating, Barnyardgrass",barnyardgrass [6]; [14],90
same,"Plant response rating, Corn",corn; [14],90
